# Target: T1, human TLR7 (Homo sapiens, UniProt Q9NYK1)
# T1 construct: host or cells: HEK-Blue cells
# T1 sequence (Q9NYK1 27-1049): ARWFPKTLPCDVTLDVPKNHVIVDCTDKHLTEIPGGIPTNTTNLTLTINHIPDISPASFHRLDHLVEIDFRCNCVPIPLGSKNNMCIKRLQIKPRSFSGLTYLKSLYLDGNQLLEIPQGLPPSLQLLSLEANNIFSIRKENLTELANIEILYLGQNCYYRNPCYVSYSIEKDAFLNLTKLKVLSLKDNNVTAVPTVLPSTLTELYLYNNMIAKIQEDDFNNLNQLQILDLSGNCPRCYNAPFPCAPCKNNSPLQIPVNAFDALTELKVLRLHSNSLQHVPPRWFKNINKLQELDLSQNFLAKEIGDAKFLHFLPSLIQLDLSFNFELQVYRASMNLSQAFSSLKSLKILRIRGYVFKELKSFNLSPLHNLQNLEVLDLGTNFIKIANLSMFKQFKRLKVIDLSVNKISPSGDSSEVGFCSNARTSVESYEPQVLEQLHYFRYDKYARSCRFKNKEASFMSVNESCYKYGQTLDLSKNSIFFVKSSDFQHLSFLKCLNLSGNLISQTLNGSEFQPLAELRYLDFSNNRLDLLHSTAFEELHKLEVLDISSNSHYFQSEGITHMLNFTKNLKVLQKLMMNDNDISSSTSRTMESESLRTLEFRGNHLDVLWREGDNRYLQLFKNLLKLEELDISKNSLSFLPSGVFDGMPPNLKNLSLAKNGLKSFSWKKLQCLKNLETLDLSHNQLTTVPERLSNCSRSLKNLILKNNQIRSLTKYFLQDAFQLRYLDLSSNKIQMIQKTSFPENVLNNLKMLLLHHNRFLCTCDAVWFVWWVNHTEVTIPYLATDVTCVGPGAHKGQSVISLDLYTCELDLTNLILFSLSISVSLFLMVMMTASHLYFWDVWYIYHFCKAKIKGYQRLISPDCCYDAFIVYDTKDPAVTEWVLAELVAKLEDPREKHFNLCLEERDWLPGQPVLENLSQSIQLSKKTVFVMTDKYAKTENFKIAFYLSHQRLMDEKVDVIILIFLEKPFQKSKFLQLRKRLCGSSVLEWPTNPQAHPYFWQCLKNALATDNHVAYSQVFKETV
# Test: TLR7 inhibition reporter assay (HEK-Blue SEAP)
# Type: cell-based
# Settings: HEK-Blue cells overexpressing human TLR7, gardiquimod 7.5 μM, 22 hour incubation
# Procedure, shortened: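 Cells (15000/well for TLR7, 20,000 for TLR8) were treated with compounds over 0.05 nM-50 μM final. After 22 h at 37° C, 5% CO2, SEAP was measured with HEK-Blue Detection reagent; percent inhibition was taken as reduction of agonist-plus-DMSO signal relative to a known inhibitor.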
row,SMILES,IC50 [nM]
1,"COc1cc(-c2cc3[nH]c(=O)n(C4CCC(N5CC6(C5)CS(=O)(=O)C6)CC4)c3cc2C(C)C)cn2ncnc12 (single isomer, unassigned) [Example 245, 1-(4-(2,2-dioxido-2-thia-6-azaspiro[3.3]heptan-6-yl)cyclohexyl)-6-isopropyl-5-(8-methoxy-[1,2,4]triazolo[1,5-a]pyridin-6-yl)-1,3-dihydro-2H-benzo[d]imidazol-2-one]",5.96
2,"COc1cc(-c2cc3[nH]c(=O)n(C4CCC(N5CCC(F)(F)CC5)CC4)c3cc2C(C)C)cn2ncnc12 (single isomer, unassigned) [Example 246, 1-(4-(4,4-difluoropiperidin-1-yl)cyclohexyl)-6-isopropyl-5-(8-methoxy-[1,2,4]triazolo[1,5-a]pyridin-6-yl)-1,3-dihydro-2H-benzo[d]imidazol-2-one]",2.81
3,"COc1cc(-c2cc3[nH]c(=O)n(C4CCC(N5CCC(F)(F)CC5)CC4)c3cc2C(C)C)cn2ncnc12 (single isomer, unassigned) [Example 247, 1-(4-(4,4-difluoropiperidin-1-yl)cyclohexyl)-6-isopropyl-5-(8-methoxy-[1,2,4]triazolo[1,5-a]pyridin-6-yl)-1,3-dihydro-2H-benzo[d]imidazol-2-one]",30.2
4,"COc1cc(-c2cc3[nH]c(=O)n(C4CCC(N(C)CCC(F)(F)F)CC4)c3cc2C(C)C)cn2ncnc12 (single isomer, unassigned) [Example 248, 6-isopropyl-5-(8-methoxy-[1,2,4]triazolo[1,5-a]pyridin-6-yl)-1-(4-(methyl(3,3,3-trifluoropropyl)amino)cyclohexyl)-1,3-dihydro-2H-benzo[d]imidazol-2-one]",1.12
5,"COc1cc(-c2cc3[nH]c(=O)n(C4CCC(N(C)CCC(F)(F)F)CC4)c3cc2C(C)C)cn2ncnc12 (single isomer, unassigned) [Example 249, 6-isopropyl-5-(8-methoxy-[1,2,4]triazolo[1,5-a]pyridin-6-yl)-1-(4-(methyl(3,3,3-trifluoropropyl)amino)cyclohexyl)-1,3-dihydro-2H-benzo[d]imidazol-2-one]",0.5
6,"COc1cc(-c2cc3[nH]c(=O)n(C4CCC(N5C6CCC5COC6)CC4)c3cc2C(C)C)cn2ncnc12 (single isomer, unassigned) [Example 252, 1-(4-(3-oxa-8-azabicyclo[3.2.1]octan-8-yl)cyclohexyl)-6-isopropyl-5-(8-methoxy-[1,2,4]triazolo[1,5-a]pyridin-6-yl)-1,3-dihydro-2H-benzo[d]imidazol-2-one]",40.5
7,"COc1cc(-c2cc3[nH]c(=O)n(C4CCC(N5C6CCC5COC6)CC4)c3cc2C(C)C)cn2ncnc12 (single isomer, unassigned) [Example 253, 1-(4-(3-oxa-8-azabicyclo[3.2.1]octan-8-yl)cyclohexyl)-6-isopropyl-5-(8-methoxy-[1,2,4]triazolo[1,5-a]pyridin-6-yl)-1,3-dihydro-2H-benzo[d]imidazol-2-one]",4.75
8,"COc1c(C)c(-c2cc3[nH]c(=O)n(C4CCC(NCC5(S(C)(=O)=O)CC5)CC4)c3cc2C(C)C)cn2ncnc12 (single isomer, unassigned) [Example 259]",10.4
9,"COc1c(C)c(-c2cc3[nH]c(=O)n(C4CCC(NCC5(S(C)(=O)=O)CC5)CC4)c3cc2C(C)C)cn2ncnc12 (single isomer, unassigned) [Example 260]",41.5
10,"COc1c(C)c(-c2cc3[nH]c(=O)n(C4CCC(N5CCCOCC5)CC4)c3cc2C(C)C)cn2ncnc12 (single isomer, unassigned) [Example 261, 1-(4-(1,4-oxazepan-4-yl)cyclohexyl)-6-isopropyl-5-(8-methoxy-7-methyl-[1,2,4]triazolo[1,5-a]pyridin-6-yl)-1,3-dihydro-2H-benzo[d]imidazol-2-one]",15.5
11,"COc1c(C)c(-c2cc3[nH]c(=O)n(C4CCC(N5CCCOCC5)CC4)c3cc2C(C)C)cn2ncnc12 (single isomer, unassigned) [Example 262, 1-(4-(1,4-oxazepan-4-yl)cyclohexyl)-6-isopropyl-5-(8-methoxy-7-methyl-[1,2,4]triazolo[1,5-a]pyridin-6-yl)-1,3-dihydro-2H-benzo[d]imidazol-2-one]",2.3
12,"COc1c(C)c(-c2cc3[nH]c(=O)n(C4CCC(N5CC(F)C5)CC4)c3cc2C(C)C)cn2ncnc12 (single isomer, unassigned) [Example 263, 1-(4-(3-fluoroazetidin-1-yl)cyclohexyl)-6-isopropyl-5-(8-methoxy-7-methyl-[1,2,4]triazolo[1,5-a]pyridin-6-yl)-1,3-dihydro-2H-benzo[d]imidazol-2-one]",7.93
13,"COc1c(C)c(-c2cc3[nH]c(=O)n(C4CCC(N5CC(F)C5)CC4)c3cc2C(C)C)cn2ncnc12 (single isomer, unassigned) [Example 264, 1-(4-(3-fluoroazetidin-1-yl)cyclohexyl)-6-isopropyl-5-(8-methoxy-7-methyl-[1,2,4]triazolo[1,5-a]pyridin-6-yl)-1,3-dihydro-2H-benzo[d]imidazol-2-one]",28.4
14,"COc1c(C)c(-c2cc3[nH]c(=O)n(C4CCC(N5CCC6(CC5)COC6)CC4)c3cc2C(C)C)cn2ncnc12 (single isomer, unassigned) [Example 267, 1-(4-(2-oxa-7-azaspiro[3.5]nonan-7-yl)cyclohexyl)-6-isopropyl-5-(8-methoxy-7-methyl-[1,2,4]triazolo[1,5-a]pyridin-6-yl)-1,3-dihydro-2H-benzo[d]imidazol-2-one]",2.1
15,"COc1c(C)c(-c2cc3[nH]c(=O)n(C4CCC(N5CCC6(CC5)COC6)CC4)c3cc2C(C)C)cn2ncnc12 (single isomer, unassigned) [Example 268, 1-(4-(2-oxa-7-azaspiro[3.5]nonan-7-yl)cyclohexyl)-6-isopropyl-5-(8-methoxy-7-methyl-[1,2,4]triazolo[1,5-a]pyridin-6-yl)-1,3-dihydro-2H-benzo[d]imidazol-2-one]",15.8
16,"COc1c(C)c(-c2cc3[nH]c(=O)n(C4CCC(N5CC6(COC6)C5)CC4)c3cc2C(C)C)cn2ncnc12 (single isomer, unassigned) [Example 269, 1-(4-(2-oxa-6-azaspiro[3.3]heptan-6-yl)cyclohexyl)-6-isopropyl-5-(8-methoxy-7-methyl-[1,2,4]triazolo[1,5-a]pyridin-6-yl)-1,3-dihydro-2H-benzo[d]imidazol-2-one]",5.73
17,"COc1c(C)c(-c2cc3[nH]c(=O)n(C4CCC(N5CC6(COC6)C5)CC4)c3cc2C(C)C)cn2ncnc12 (single isomer, unassigned) [Example 270, 1-(4-(2-oxa-6-azaspiro[3.3]heptan-6-yl)cyclohexyl)-6-isopropyl-5-(8-methoxy-7-methyl-[1,2,4]triazolo[1,5-a]pyridin-6-yl)-1,3-dihydro-2H-benzo[d]imidazol-2-one]",19.3
18,"Cc1c(-c2cc3[nH]c(=O)n(C4CCC(N5CCC(F)(F)CC5)CC4)c3cc2C(C)C)cn2ncnc2c1C (single isomer, unassigned) [Example 275, 1-(4-(4,4-difluoropiperidin-1-yl)cyclohexyl)-5-(7,8-dimethyl-[1,2,4]triazolo[1,5-a]pyridin-6-yl)-6-isopropyl-1,3-dihydro-2H-benzo[d]imidazol-2-one]",13.7
19,"Cc1c(-c2cc3[nH]c(=O)n(C4CCC(N5CCC(F)(F)CC5)CC4)c3cc2C(C)C)cn2ncnc2c1C (single isomer, unassigned) [Example 276, 1-(4-(4,4-difluoropiperidin-1-yl)cyclohexyl)-5-(7,8-dimethyl-[1,2,4]triazolo[1,5-a]pyridin-6-yl)-6-isopropyl-1,3-dihydro-2H-benzo[d]imidazol-2-one]",61.7
20,"COC1CN(C2CCC(n3c(=O)[nH]c4cc(-c5cn6ncnc6c(C)c5C)c(C(C)C)cc43)CC2)C1 (single isomer, unassigned) [Example 277, 5-(7,8-dimethyl-[1,2,4]triazolo[1,5-a]pyridin-6-yl)-6-isopropyl-1-(4-(3-methoxyazetidin-1-yl)cyclohexyl)-1,3-dihydro-2H-benzo[d]imidazol-2-one]",2.39
21,"COC1CN(C2CCC(n3c(=O)[nH]c4cc(-c5cn6ncnc6c(C)c5C)c(C(C)C)cc43)CC2)C1 (single isomer, unassigned) [Example 278, 5-(7,8-dimethyl-[1,2,4]triazolo[1,5-a]pyridin-6-yl)-6-isopropyl-1-(4-(3-methoxyazetidin-1-yl)cyclohexyl)-1,3-dihydro-2H-benzo[d]imidazol-2-one]",7.88

# — patent US12187723B2 (BRISTOL-MYERS SQUIBB COMPANY, priority 2019, dated 2025)
